Test results taken from US20010021697A1, “METHODS AND COMPOSITIONS FOR THE TREATMENT OF MAMMALIAN INFECTIONS EMPLOYING MEDICAMENTS COMPRISING HYMENOPTERA VENOM, PROTEINAGEOUS OR POLYPEPTIDE COMPONENTS THEREOF, OR ANALOGUES OF SUCH PROTEINACEOUS OR POLYPEPTIDE COMPONENTS” (priority 1987, published 2001).

Assays:
[1] = test system: S. epidermidis; experiment: Automated MIC assay (Sensititre) of antibiotics with and without HBV; assay type: cell-based; conditions: with vs without 4 ug/ml HBV
[2] = test system: S. aureus; experiment: as above; assay type: cell-based; conditions: with vs without 4 ug/ml HBV
[3] = test system: Streptococcus faecalis; experiment: as above; assay type: cell-based; conditions: Streptococcus faecalis strain 81-; with vs without 4 ug/ml HBV
[4] = test system: E. coli; experiment: as above; assay type: cell-based; conditions: with vs without 4 ug/ml HBV
[5] = test system: E. Coli strain No. G1108E; experiment: Checkerboard titration synergy assay of natural melittin and analogue #6 with polymyxin B; assay type: cell-based; conditions: for synergistic activity with polymyxin B compared with natural melittin: E. coli, 10 ug peptide + 6 units polymyxin B
[6] = Relative activity of analogues with respect to native melittin; assay type: cell-based
Description: Also some of then analogues mentioned above were tested to determine their relative activities with respect to native melittin. The relative activity is calculated as follows: [formula]

[7] = test system: E. coli G1108E; experiment: Checkerboard titration synergy assay of melittin analogues with polymyxin B; assay type: cell-based; conditions: for relative in vitro activity, place in ascending order: 5 ug/ml peptide with 6 units/ml polymyxin B, delay time until mid-log phase (FIG. 26)
[8] = test system: S. aureus; experiment: Equivalent doses of melittin fraction and whole honeybee venom with and without kanamycin (growth curves); assay type: cell-based; conditions: for MEAN A660: doses of what is present: KANA = 2.5, MEL = 1.6, HBV = 2 (ug/ml)
[9] = test system: 30 random strains of bacteria; conditions: Sephadex G-50 purified melittin fraction; cited from earlier work
[10] = S. aureus strain QC (printed 0C)
[11] = 0 hrs, doses of what is present: Polymyxin B 3 units, peptide 5 ug
[12] = 0 hrs, doses of what is present: Polymyxin B 6 units, peptide 10 ug
[13] = 2 hrs, doses of what is present: Polymyxin B 3 units, peptide 5 ug
[14] = 2 hrs, doses of what is present: Polymyxin B 6 units, peptide 10 ug
[15] = 4 hrs, doses of what is present: Polymyxin B 3 units, peptide 5 ug
[16] = 4 hrs, doses of what is present: Polymyxin B 6 units, peptide 10 ug
[17] = 6 hrs, doses of what is present: Polymyxin B 3 units, peptide 5 ug
[18] = 6 hrs, doses of what is present: Polymyxin B 6 units, peptide 10 ug
[19] = 8 hrs, doses of what is present: Polymyxin B 3 units, peptide 5 ug
[20] = 8 hrs, doses of what is present: Polymyxin B 6 units, peptide 10 ug
[21] = 12 hrs, doses of what is present: Polymyxin B 3 units, peptide 5 ug
[22] = 12 hrs, doses of what is present: Polymyxin B 6 units, peptide 10 ug

| Substance | effect of 4 ug/ml HBV on the MIC of the antibiotic ([1]; S. epidermidis strain 5905) | effect of 4 ug/ml HBV on the MIC of the antibiotic ([1]; S. epidermidis strain 5907) | effect of 4 ug/ml HBV on the MIC of the antibiotic ([1]; S. epidermidis strain 7905) | effect of 4 ug/ml HBV on the MIC of the antibiotic ([1]; S. epidermidis strain 7908) | effect of 4 ug/ml HBV on the MIC of the antibiotic ([1]; S. epidermidis strain 39817) | effect of 4 ug/ml HBV on the MIC of the antibiotic ([2]; S. aureus strain 51072) | effect of 4 ug/ml HBV on the MIC of the antibiotic [2, 10] | effect of 4 ug/ml HBV on the MIC of the antibiotic [3] | Average optical densities (OD660) [5, 11] | Average optical densities (OD660) [5, 12] | Average optical densities (OD660) [5, 13] | Average optical densities (OD660) [5, 14] | Average optical densities (OD660) [5, 15] | Average optical densities (OD660) [5, 16] | Average optical densities (OD660) [5, 17] | Average optical densities (OD660) [5, 18] | Average optical densities (OD660) [5, 19] | Average optical densities (OD660) [5, 20] | Average optical densities (OD660) [5, 21] | relative in vitro activity, place in ascending order [7] | further results |
| --- | --- | --- | --- | --- | --- | --- | --- | --- | --- | --- | --- | --- | --- | --- | --- | --- | --- | --- | --- | --- | --- |
| Gentamicin | − (A (−) indicates a MIC decrease of less than two dilution steps.) | − (A (−) indicates a MIC decrease of less than two dilution steps.) | − (A (−) indicates a MIC decrease of less than two dilution steps.) | + (A (+) indicates a MIC decrease greater than or equal to two dilution steps.) | + (A (+) indicates a MIC decrease greater than or equal to two dilution steps.) | +^ (A (+) indicates a MIC decrease greater than or equal to two dilution steps.) | +^ (A (+) indicates a MIC decrease greater than or equal to two dilution steps.) | − (A (−) indicates a MIC decrease of less than two dilution steps.) | – | – | – | – | – | – | – | – | – | – | – | – | effect of 4 ug/ml HBV on the MIC of the antibiotic ([4]; E. coli strain 1173): − (A (−) indicates a MIC decrease of less than two dilution steps.); effect of 4 ug/ml HBV on the MIC of the antibiotic ([4]; E. coli strain 4302): + (A (+) indicates a MIC decrease greater than or equal to two dilution steps.); effect of 4 ug/ml HBV on the MIC of the antibiotic ([4]; E. coli strain 19033): + (A (+) indicates a MIC decrease greater than or equal to two dilution steps.); effect of 4 ug/ml HBV on the MIC of the antibiotic ([4]; E. coli strain QC): + (A (+) indicates a MIC decrease greater than or equal to two dilution steps.) |
| H-Gly-Ile-Gly-Ala-Val-Leu-Lys-Val-Leu-Thr-Thr-Gly-Leu-Pro-Ala-Leu-Ile-Ser-Trp-Ile-Lys-Lys-Lys-Lys-Gln-Gln-NH2 (H-GIGAVLKVLTTGLPALISWIKKKKQQ-NH2) [Analogue #6] | – | – | – | – | – | – | – | – | .013 | .013 | .072 | .072 | .831 | .824 | 1.07 | 1.09 | 1.09 | 1.11 | 1.16 | 4 | Average optical densities (OD660) [5, 22]: 1.17; synergistic activity with polymyxin B compared with natural melittin [5]: At no time could a significant difference be detected; synergistic activity with polymyxin B compared with natural melittin ([5]; listed as Analogue No. 6): activity equivalent to natural melittin; difference between the specific activities of melittin versus analogue #6 ([5]; estimated from Table 11): less than 10%; Relative Activity [6]: 100% |
| Melittin (1-20) - Orn-Orn-Orn-Orn-Gln-Gln-NH2 [Analogue #2] | – | – | – | – | – | – | – | – | – | – | – | – | – | – | – | – | – | – | – | 6 | Relative Activity [6]: 200% |
| Melittin (1-20)-Lys-Arg-Lys-Arg-Gln-Gln-NH2. | – | – | – | – | – | – | – | – | .013 | .013 | .072 | .072 | .833 | .0827 | 1.10 | 1.09 | 1.11 | 1.10 | 1.18 | 2 | Average optical densities (OD660) [5, 22]: 1.19; effect of the peptide alone on the growth of E. coli ([7]; used alone at 10 ug/ml or less): no effect; MEAN A660 ([8]; T0): 0.021; MEAN A660 ([8]; T2): 0.080; MEAN A660 ([8]; T4): 0.374; MEAN A660 ([8]; T6): 1.099; MEAN A660 ([8]; T8): 1.288; MEAN A660 ([8]; T12): 1.339; MEAN A660 ([8]; T24): 1.415; antibacterial activity of the melittin fraction compared with whole HBV, in combination with kanamycin ([8]; equivalent doses with equal doses of kanamycin (FIG. 15)): None of the optical densities at any time point on the two curves are significantly different; antibacterial activity of the melittin fraction compared with whole HBV ([8]; equivalent doses, without antibiotic (FIG. 14)): No significant differences; antibacterial activity [9]: potent antibacterial activity |
| Penicillin | − (A (−) indicates a MIC decrease of less than two dilution steps.) | − (A (−) indicates a MIC decrease of less than two dilution steps.) | + (A (+) indicates a MIC decrease greater than or equal to two dilution steps.) | + (A (+) indicates a MIC decrease greater than or equal to two dilution steps.) | + (A (+) indicates a MIC decrease greater than or equal to two dilution steps.) | +^6 (A (+) indicates a MIC decrease greater than or equal to two dilution steps.) | −^5 (A (−) indicates a MIC decrease of less than two dilution steps.) | − (A (−) indicates a MIC decrease of less than two dilution steps.) | – | – | – | – | – | – | – | – | – | – | – | – | – |
| Venomycin | − (A (−) indicates a MIC decrease of less than two dilution steps.) | − (A (−) indicates a MIC decrease of less than two dilution steps.) | − (A (−) indicates a MIC decrease of less than two dilution steps.) | + (A (+) indicates a MIC decrease greater than or equal to two dilution steps.) | − (A (−) indicates a MIC decrease of less than two dilution steps.) | +^ (A (+) indicates a MIC decrease greater than or equal to two dilution steps.) | +^ (A (+) indicates a MIC decrease greater than or equal to two dilution steps.) | − (A (−) indicates a MIC decrease of less than two dilution steps.) | – | – | – | – | – | – | – | – | – | – | – | – | – |
